Assay results reported in paper PMC5749684, “Tetrahydrocarbazoles are a novel class of potent P-type ATPase inhibitors with antifungal activity” (PLoS ONE, 2018).
In brackets after ≈: the same amount, converted by molar mass.

Tests used:
Candida albicans Pma1 = target: T1, Candida albicans Pma1 (Candida albicans, UniProt P28877); test: ATP hydrolysis inhibition, C. albicans Pma1; type: biochemical; details: racemic compounds, n = 3
T1 construct: endogenous in cells
Experimental: Candida albicans microsomes were prepared from 100 mL overnight culture in YPD (10 g/L yeast extract (BD, Sparks, MD), 20 g/L Bacto peptone (BD, Sparks, MD), 20 g/L D-(+)-glucose), transferred to 1 L YPD and grown at RT, 150 rpm, for 7 h. Cells were harvested and washed in deionized water followed by centrifugation at 3360 x g. The cells were glucose-activated by the addition of 10% (w/v) D-(+)-glucose for 10 minutes while shaking. This suspension was then centrifuged at 3,360 x g for 3 minutes and 60–80 g of cells (wet weight) were resuspended in homogenization buffer (50 g/L glucose, 28.3% (v/v) glycerol, 100 mM Tris-HCl pH 7.25, 10 mM EDTA pH 8.0, 50 mM KCl, 1 mM DTT, 200 μM PMSF, 2 μg/ml Pepstatin A), and disrupted with 165 g glassbeads (500 μm diameter) in a BeadBeater (Biospec Product, Bartlesville, OK). The disrupted cells were centrifuged at 4°C for 5 and 15 minutes at 1,400 x g and 12,000 x g, respectively. The supernatant was collected and centrifuged at 251,000 x g for 1 h, and the membrane fraction was collected and homogenized in GTEK20 buffer (20% (v/v) glycerol, 10 mM Tris-HCl pH 7.25, 25 mM KCl, 0.5 mM EDTA pH 8.0, 1 mM DTT, 0.2 mM PMSF, 2 μg/mL Pepstatin A).
(§1) ATPase activity was determined by measuring the amount of liberated phosphate from ATP hydrolysis. The ATPase assay was performed in 96 well plates in a final reaction volume of 60 μL. 0.1–0.2 μg/well of DOC extracted SERCA membrane or the Na^+,K^+-ATPase was used, while 1–2.5 μg/well was used of the Pma1 membrane preparation. Reactions, including protein membrane preparation and various concentrations of exogenously added compounds, were conducted in the following buffers; Pma1 buffer: 17.5 mM MOPS-NaOH pH 7, 7 mM MgSO4, 44 mM KNO3 (vacuolar ATPase inhibitor), 22 mM NaN3 (mitochondrial ATPase inhibitor), 0.22 mM Na2MoO4 (acid phosphatase inhibitor); SERCA buffer: 9 mM MOPS-NaOH pH 7, 2.7 mM MgCl2, 0.1 mM CaCl2 and 72 mM KCl. Na^+,K^+-ATPase buffer: 30 mM MOPS-NaOH pH 7, 40 mM NaCl, 4 mM MgCl2 and 20 mM KCl. Reactions were initiated by the addition of Na-ATP to a final concentration of 2.5 mM (Pma1 and Na^+,K^+-ATPase) or 5 mM (SERCA), followed by 30 minutes incubation at 30°C. […] Absorption was measured at 860 nm after additional 30 minutes incubation at RT.

Mammalian SERCA = target: T2, Mammalian SERCA (Oryctolagus cuniculus, UniProt P04191); test: ATP hydrolysis inhibition, SERCA; type: biochemical; details: rabbit SERCA, racemic compounds, n = 3
T2 construct: Ca^2+ ATPase was provided in SR membranes purified by extraction with a low concentration of deoxycholate (DOC); from tissue; host or cells: sarcoplasmic reticulum membranes (rabbit)
Excerpt: (§2) All membrane batches were validated by determining ATPase activity, pH optimum and orthovanadate sensitivity. Sarco/endoplasmatic reticulum (SR) Ca^2+ ATPase was provided in SR membranes purified by extraction with a low concentration of deoxycholate (DOC) and was kindly provided by Claus E. Olesen and Jesper V. Møller, Aarhus University and prepared as described in [43]. The pig kidney Na^+,K^+-ATPase purification included a mild SDS treatment of isolated microsomes followed by a washing step and was kindly provided by Natalya Fedosova, Aarhus University and prepared as described in [44].
as §1

[1] = tested on: Candida glabrata ATCC 90030; test: Fungal growth inhibition, C. glabrata ATCC 90030; type: cell-based; details: Nakaseomyces glabratus, ATCC90030; MIC defined as 50% growth inhibition, 24 h, n = 3–6
Excerpt: (§3) Fungal isolates were purchased from American Type Culture Collection, except for C. glabrata strain Cg003, which was kindly provided by Julius Subik, Comenius University in Bratislava, Slovak Republic. Cg003 is a clinical isolate, characterized to be resistant to fluconazole and itraconazole due to overexpression of the multidrug resistance efflux pumps Cdr1p and Cdr2p. Saccharomyces cerevisiae (ATCC 9763), Candida albicans (ATCC 90028), Candida albicans (SC5314), Candida glabrata (ATCC 90030), Candida glabrata (Cg003) and Candida krusei (ATCC 6258) were grown in Sabouraud broth (40 g/L D-glucose, 10 g/L peptone, pH 5.6) or YPD (10 g/L yeast extract, 20 g/L Bacto-peptone, 20 g/L glucose) medium to mid log phase, aliquoted into 20% (v/v) glycerol and cryopreserved as stocks at -80°C. For each growth assay, cells from these stocks were diluted in sterile water to OD600 = 0.025, which corresponds to a final starting inoculum of 0.5–2.5 x 10^5 CFU/mL. Growth assays were carried out by pipetting 3 μL compound dissolved in DMSO, 100 μL cell suspension and 97 μL 2 x RPMI media (20.8 g/L RPMI-1640 (Sigma-Aldrich catalog number R6504) 330 mM MOPS, 36 g/L glucose) into a microtiter plate and incubating for 24 h at 34°C, followed by OD measurement at 490 nm. The minimum inhibitory concentration (MIC) was defined as 50% growth inhibition of the microorganism as this measurement best represented the antifungal activity of the compounds. Standard errors were typically below 5%.

Candida albicans SC5314 = test: Fungal growth inhibition, C. albicans SC5314; type: cell-based; details: MIC defined as 50% growth inhibition, 24 h, n = 3–6
Excerpt: as §3

[2] = target: T3, Mammalian Na^+,K^+-ATPase (Sus scrofa, UniProt P05024); test: ATP hydrolysis inhibition, Na+,K+-ATPase; type: biochemical; details: pig Na+,K+-ATPase, racemic compounds, n = 3
T3 construct: The pig kidney Na^+,K^+-ATPase purification included a mild SDS treatment of isolated microsomes; from tissue; host or cells: pig kidney microsomes, SDS-treated
Excerpt: as §2, §1

[3] = tested on: Saccharomyces cerevisiae ATCC 9763; test: Fungal growth inhibition, S. cerevisiae ATCC 9763; type: cell-based; details: ATCC9763, MIC defined as 50% growth inhibition, 24 h, n = 3–6
Excerpt: as §3

T2 sequence (P04191 1-994 isoform P04191-2): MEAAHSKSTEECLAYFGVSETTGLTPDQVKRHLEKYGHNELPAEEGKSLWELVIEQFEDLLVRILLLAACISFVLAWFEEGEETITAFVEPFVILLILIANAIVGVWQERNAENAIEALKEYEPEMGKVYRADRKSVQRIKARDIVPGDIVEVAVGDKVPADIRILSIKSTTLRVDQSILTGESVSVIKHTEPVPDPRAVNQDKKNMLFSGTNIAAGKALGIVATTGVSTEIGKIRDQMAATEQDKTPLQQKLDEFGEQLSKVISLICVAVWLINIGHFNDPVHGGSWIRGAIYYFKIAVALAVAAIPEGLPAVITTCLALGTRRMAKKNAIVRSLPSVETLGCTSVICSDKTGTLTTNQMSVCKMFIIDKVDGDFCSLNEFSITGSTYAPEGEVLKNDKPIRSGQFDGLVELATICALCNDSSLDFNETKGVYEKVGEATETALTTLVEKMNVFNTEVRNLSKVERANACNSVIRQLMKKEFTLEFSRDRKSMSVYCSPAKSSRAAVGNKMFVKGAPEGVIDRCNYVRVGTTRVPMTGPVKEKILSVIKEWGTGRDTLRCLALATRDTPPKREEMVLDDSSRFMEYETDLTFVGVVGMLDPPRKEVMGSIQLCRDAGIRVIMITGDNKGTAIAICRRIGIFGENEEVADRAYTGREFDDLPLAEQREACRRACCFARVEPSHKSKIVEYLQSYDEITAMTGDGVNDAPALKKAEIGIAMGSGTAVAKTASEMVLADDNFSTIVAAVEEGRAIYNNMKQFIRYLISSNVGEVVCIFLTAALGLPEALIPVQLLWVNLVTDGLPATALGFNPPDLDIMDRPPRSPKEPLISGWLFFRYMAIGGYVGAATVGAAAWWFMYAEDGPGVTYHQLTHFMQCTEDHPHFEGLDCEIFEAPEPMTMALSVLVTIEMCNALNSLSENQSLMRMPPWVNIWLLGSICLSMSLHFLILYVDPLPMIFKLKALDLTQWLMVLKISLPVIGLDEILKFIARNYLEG
T1 sequence (P28877 whole entry): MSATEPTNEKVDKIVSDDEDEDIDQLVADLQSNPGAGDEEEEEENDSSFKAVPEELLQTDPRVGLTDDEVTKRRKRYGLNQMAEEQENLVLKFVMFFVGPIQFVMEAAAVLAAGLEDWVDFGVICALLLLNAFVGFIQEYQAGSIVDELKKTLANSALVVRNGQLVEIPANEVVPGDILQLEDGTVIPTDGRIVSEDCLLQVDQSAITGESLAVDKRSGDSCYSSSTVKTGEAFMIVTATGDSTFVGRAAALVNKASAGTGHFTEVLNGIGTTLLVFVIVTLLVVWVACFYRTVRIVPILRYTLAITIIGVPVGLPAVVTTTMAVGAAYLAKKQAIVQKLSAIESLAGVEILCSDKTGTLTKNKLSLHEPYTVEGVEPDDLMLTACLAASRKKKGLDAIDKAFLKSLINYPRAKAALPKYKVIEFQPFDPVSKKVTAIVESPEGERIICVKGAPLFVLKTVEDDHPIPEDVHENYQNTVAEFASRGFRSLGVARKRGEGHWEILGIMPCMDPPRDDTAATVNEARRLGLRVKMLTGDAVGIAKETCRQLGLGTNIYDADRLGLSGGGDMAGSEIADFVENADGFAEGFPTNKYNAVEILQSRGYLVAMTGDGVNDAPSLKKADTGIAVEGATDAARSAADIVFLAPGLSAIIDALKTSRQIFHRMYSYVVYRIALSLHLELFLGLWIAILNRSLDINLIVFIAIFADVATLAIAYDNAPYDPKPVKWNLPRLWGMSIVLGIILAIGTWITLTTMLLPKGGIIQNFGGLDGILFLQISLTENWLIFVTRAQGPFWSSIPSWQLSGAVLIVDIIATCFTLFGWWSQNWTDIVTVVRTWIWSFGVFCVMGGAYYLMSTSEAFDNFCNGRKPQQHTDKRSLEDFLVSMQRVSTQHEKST

Compound | IC50 (Candida albicans Pma1) [µM] | IC50 (Mammalian SERCA) [µM] | MIC [1] [µM] | MIC (Candida albicans SC5314) [µM] | IC50 [2] [µM] | MIC [3] [µM]
NC1CCCc2c1[nH]c1cc(OC(F)(F)F)ccc21 (stereo not drawn) [Compound 4] | 46 ± 14.5 | 1.55 ± 0.06 | 23.7 (≈ 6.41 µg/mL) | 100 ± 43 (≈ 27 µg/mL) | 37.2 ± 13.6 | 7.5 (≈ 2.03 µg/mL)
CN1CCC(NC2CCCc3c2[nH]c2cc(OC(F)(F)F)ccc32)CC1 (stereo not drawn) [Compound 5] | 130 ± 32.2 | 61.7 ± 18.8 | 46.5 ± 27 (≈ 17.1 µg/mL) | 150 (≈ 55.1 µg/mL) | 132 ± 35.2 | 11.6 ± 8.1 (≈ 4.26 µg/mL)
FC(F)(F)Oc1ccc2c3c([nH]c2c1)C(NCc1ccc(Cl)cc1)CCC3 (stereo not drawn) [Compound 6] | 3.89 ± 1.71 | 0.09 ± 0.03 | 12.1 ± 7.9 (≈ 4.78 µg/mL) | 7.5 (≈ 2.96 µg/mL) | 0.72 ± 0.3 | 5 ± 2.9 (≈ 1.97 µg/mL)
FC(F)(F)Oc1ccc2c3c([nH]c2c1)C(NCc1ccc(Br)cc1)CCC3 (stereo not drawn) [Compound 7] | 2.47 ± 0.26 | 0.11 ± 0.06 | 15 (≈ 6.59 µg/mL) | 15 (≈ 6.59 µg/mL) | 0.38 ± 0.12 | 1.5 (≈ 0.659 µg/mL)
FC(F)(F)Oc1ccc2c3c([nH]c2c1)C(NCCOc1ccc(Cl)cc1)CCC3 (stereo not drawn) [Compound 8] | 3.77 ± 1.04 | 0.26 ± 0.06 | 5.3 ± 2.7 (≈ 2.25 µg/mL) | 7.5 (≈ 3.19 µg/mL) | 1.07 ± 0.38 | 6.2 ± 2.6 (≈ 2.63 µg/mL)
FC(F)(F)Oc1ccc2[nH]c3c(c2c1)CCCC3NCc1ccc(-c2ccccn2)cc1 (stereo not drawn) [Compound 9] | 5.56 ± 1.55 | 3.27 ± 1.89 | 7.5 (≈ 3.28 µg/mL) | 7.5 (≈ 3.28 µg/mL) | 9.76 ± 4.47 | 7.5 (≈ 3.28 µg/mL)
Clc1ccc2[nH]c3c(c2c1)CCCC3NCc1ccc(-c2ccccc2)cc1 (stereo not drawn) [Compound 10] | 9.7 ± 2.15 | 5.54 ± 3.16 | 21 ± 6.6 (≈ 8.13 µg/mL) | 6.8 ± 4.6 (≈ 2.63 µg/mL) | 5.5 ± 2.74 | 7.5 (≈ 2.9 µg/mL)
Cn1c2c(c3cc(Cl)ccc31)CCCC2NCc1ccc(-c2ccccc2)cc1 (stereo not drawn) [Compound 11] | > 20 | > 20 | > 20 | > 20 | > 20 | > 20
CN(Cc1ccc(-c2ccccc2)cc1)C1CCCc2c1[nH]c1ccc(Cl)cc21 (stereo not drawn) [Compound 12] | > 20 | > 20 | > 20 | > 20 | 11.8 ± 6.8 | > 20
